Measurements taken from patent publication US9833497B2, “Human originated EGF domain proteins and use of the same” (CHENGDU SOURCEBIO LIMITED-LIABILITY COMPANY, priority 2013, dated 2017).

Key:
Type in all cases: cell-based
E. coli BL21 = experiment: MIC against Gram-negative bacteria: E. coli BL21; settings: 5×10^5 CFU/mL
Method in brief: (§1)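 Growth inhibition by human EGF domain proteins was scored in LB liquid culture seeded at 5×10^5 CFU/mL. Protein was applied as a two-fold dilution series in triplicate, with shaking incubation at 37° C; MIC is the lowest concentration giving no growth.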

Moraxella catarrhalis = experiment: MIC against Gram-negative bacteria: Moraxella catarrhalis; settings: 5×10^5 CFU/mL; for MIC against M. catarrhalis: Moraxella catarrhalis
Method in brief: as §1

Klebsiella pneumonia = experiment: MIC against Gram-negative bacteria: Klebsiella pneumonia; settings: 5×10^5 CFU/mL; for MIC against K. pneumonia: Klebsiella pneumonia
Method in brief: as §1

Proteus mirabilis = experiment: MIC against Gram-negative bacteria: Proteus mirabilis; settings: 5×10^5 CFU/mL; for MIC against P. mirabilis: Proteus mirabilis
Method in brief: as §1

Serratia marcescens = experiment: MIC against Gram-negative bacteria: Serratia marcescens; settings: 5×10^5 CFU/mL; for MIC against S. marcescens: Serratia marcescens
Method in brief: as §1

Enterobacter cloacae = experiment: MIC against Gram-negative bacteria: Enterobacter cloacae; settings: 5×10^5 CFU/mL; for MIC against E. cloacae: Enterobacter cloacae
Method in brief: as §1

Citrobacter diversus = experiment: MIC against Gram-negative bacteria: Citrobacter diversus; settings: 5×10^5 CFU/mL; for MIC against C. diversus: Citrobacter diversus
Method in brief: as §1

E. coli DH5α = experiment: Antibacterial activity: MIC and growth curve against E. coli DH5α in 96-well plate; settings: minimal inhibitory concentration against E. coli DH5α; 96-well plate, 5×10^5 CFU/mL, 37° C., judged after 8 h
Method in brief: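 MIC taken as lowest protein level with no bacterial growth, tracked by A600 every 30 min during 37 °C, 175 rpm culture. Two-fold protein series 50-12.5 μg/mL final, triplicate wells, against 5×10^5 CFU/mL of LB-washed mid-log cells.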

Proteus vulgaris = experiment: MIC against Gram-negative bacteria: Proteus vulgaris; settings: 5×10^5 CFU/mL; for MIC against P. vulgaris: Proteus vulgaris
Method in brief: as §1

Aeromonas hydrophila = experiment: MIC against Gram-negative bacteria: Aeromonas hydrophila; settings: 5×10^5 CFU/mL; for MIC against A. hydrophila: Aeromonas hydrophila
Method in brief: as §1

Pseudomonas aeruginosa = experiment: MIC against Gram-negative bacteria: Pseudomonas aeruginosa; settings: 5×10^5 CFU/mL; for MIC against P. aeruginosa: Pseudomonas aeruginosa
Method in brief: as §1

[1] = 10 h cultivation at 37° C., two-fold serial dilution

In the case of “PRT1379 (GWPSCPGDCQGRGRCVQGVCVCRAGFSGPDC; listed as Homo sapiens)”, the “MIC against E. coli BL21” value (E. coli BL21; 10 h cultivation at 37° C.) is reported as 12.5 mg/L, the “MIC against M. catarrhalis” value (Moraxella catarrhalis; 10 h cultivation at 37° C.) is reported as 25 mg/L and the “MIC against K. pneumonia” value (Klebsiella pneumonia; 10 h cultivation at 37° C.) is reported as 12.5 mg/L. For the same substance, the “MIC against P. mirabilis” value (Proteus mirabilis; 10 h cultivation at 37° C.) was 50 mg/L, the “MIC against S. marcescens” value (Serratia marcescens; 10 h cultivation at 37° C.) was 12.5 mg/L and the “MIC against E. cloacae” value (Enterobacter cloacae; 10 h cultivation at 37° C.) was 50 mg/L. The “MIC against C. diversus” value (Citrobacter diversus; 10 h cultivation at 37° C.) was 12.5 mg/L, the MIC (E. coli DH5α) was 50 mg/L and the “MIC against P. vulgaris” value (Proteus vulgaris; 10 h cultivation at 37° C.) was 25 mg/L. The “MIC against A. hydrophila” value (Aeromonas hydrophila; 10 h cultivation at 37° C.) was 25 mg/L and the “MIC against P. aeruginosa” value (Pseudomonas aeruginosa; 10 h cultivation at 37° C.) was 50 mg/L.

For “PRT1316 (ELPVCQELRCPQNTQCSAEAPSCRCLPGYTQQGSE; listed as Homo sapiens)”, the “MIC against E. coli BL21” value (E. coli BL21; 96-well plate, 37° C., 10 h) was 12.5 mg/L, the “MIC against M. catarrhalis” value (Moraxella catarrhalis; 96-well plate, 37° C., 10 h) was 50 mg/L and the “MIC against K. pneumonia” value (Klebsiella pneumonia; 96-well plate, 37° C., 10 h) was 25 mg/L. For the same substance, the “MIC against P. mirabilis” value (Proteus mirabilis; 96-well plate, 37° C., 10 h) was 12.5 mg/L, the “MIC against S. marcescens” value (Serratia marcescens; 96-well plate, 37° C., 10 h) was 12.5 mg/L and the “MIC against E. cloacae” value (Enterobacter cloacae; 96-well plate, 37° C., 10 h) was 12.5 mg/L. For the same substance, the “MIC against C. diversus” value (Citrobacter diversus; 96-well plate, 37° C., 10 h) was 12.5 mg/L, the MIC (E. coli DH5α) was 50 mg/L and the “MIC against P. vulgaris” value (Proteus vulgaris; 96-well plate, 37° C., 10 h) was 50 mg/L. The “MIC against A. hydrophila” value (Aeromonas hydrophila; 96-well plate, 37° C., 10 h) was 50 mg/L and the “MIC against P. aeruginosa” value (Pseudomonas aeruginosa; 96-well plate, 37° C., 10 h) was 50 mg/L.

For “PRT1151 (QFASCENNPCGNGATCVPKSGTDIVCLCPYGRSGPLCT; listed as Homo sapiens)”, the “MIC E. coli BL21” value (E. coli BL21; [1]) was 12.5 mg/L, the “MIC M. catarrhalis” value (Moraxella catarrhalis; [1]) was 25 mg/L and the “MIC K. pneumonia” value (Klebsiella pneumonia; [1]) was 50 mg/L. The “MIC P. mirabilis” value (Proteus mirabilis; [1]) was 50 mg/L, the “MIC S. marcescens” value (Serratia marcescens; [1]) was 12.5 mg/L and the “MIC E. cloacae” value (Enterobacter cloacae; [1]) was 25 mg/L. The “MIC C. diversus” value (Citrobacter diversus; [1]) was 12.5 mg/L, the MIC (E. coli DH5α) was 25 mg/L and the “MIC P. vulgaris” value (Proteus vulgaris; [1]) was 12.5 mg/L. For the same substance, the “MIC A. hydrophila” value (Aeromonas hydrophila; [1]) was 25 mg/L and the “MIC P. aeruginosa” value (Pseudomonas aeruginosa; [1]) was 25 mg/L.

In the case of “PRT1368 (EKRCPGDCSGHGFCDTGECYCEEGFTGLDCA; listed as Homo sapiens)”, the “MIC against E. coli BL21” value (E. coli BL21; 10 h cultivation at 37° C.) is reported as 25 mg/L, the “MIC against M. catarrhalis” value (Moraxella catarrhalis; 10 h cultivation at 37° C.) is reported as 12.5 mg/L and the “MIC against K. pneumonia” value (Klebsiella pneumonia; 10 h cultivation at 37° C.) is reported as 25 mg/L. For the same substance, the “MIC against P. mirabilis” value (Proteus mirabilis; 10 h cultivation at 37° C.) was 12.5 mg/L, the “MIC against S. marcescens” value (Serratia marcescens; 10 h cultivation at 37° C.) was 12.5 mg/L and the “MIC against E. cloacae” value (Enterobacter cloacae; 10 h cultivation at 37° C.) was 12.5 mg/L. The “MIC against C. diversus” value (Citrobacter diversus; 10 h cultivation at 37° C.) was 12.5 mg/L, the MIC (E. coli DH5α) was 12.5 mg/L and the “MIC against P. vulgaris” value (Proteus vulgaris; 10 h cultivation at 37° C.) was 12.5 mg/L. The “MIC against A. hydrophila” value (Aeromonas hydrophila; 10 h cultivation at 37° C.) was 25 mg/L and the “MIC against P. aeruginosa” value (Pseudomonas aeruginosa; 10 h cultivation at 37° C.) was 12.5 mg/L.

With “PRT792 (YGVLCAETCQCVNGGKCYHVSGACLCEAGFAGERCE; listed as Homo sapiens)” the “MIC (μg/mL) E. coli BL21” value (E. coli BL21; 10 h cultivation at 37° C.) was 50 µg/mL, the “MIC (μg/mL) M. catarrhalis” value (Moraxella catarrhalis; 10 h cultivation at 37° C.) was 12.5 µg/mL and the “MIC (μg/mL) K. pneumonia” value (Klebsiella pneumonia; 10 h cultivation at 37° C.) was 12.5 µg/mL. The “MIC (μg/mL) P. mirabilis” value (Proteus mirabilis; 10 h cultivation at 37° C.) was 50 µg/mL, the “MIC (μg/mL) S. marcescens” value (Serratia marcescens; 10 h cultivation at 37° C.) was 50 µg/mL and the “MIC (μg/mL) E. cloacae” value (Enterobacter cloacae; 10 h cultivation at 37° C.) was 25 µg/mL. The “MIC (μg/mL) C. diversus” value (Citrobacter diversus; 10 h cultivation at 37° C.) was 25 µg/mL, the MIC (E. coli DH5α) was 12.5 mg/L and the “MIC (μg/mL) P. vulgaris” value (Proteus vulgaris; 10 h cultivation at 37° C.) was 12.5 µg/mL. The “MIC (μg/mL) A. hydrophila” value (Aeromonas hydrophila; 10 h cultivation at 37° C.) was 50 µg/mL and the “MIC (μg/mL) P. aeruginosa” value (Pseudomonas aeruginosa; 10 h cultivation at 37° C.) was 12.5 µg/mL.

For “PRT848 (CQCNNRSASCDALTGACLNCQENSKGNHCEECKEGFYQSPDATKECLR; listed as Homo sapiens)”, the “MIC (μg/mL) E. coli BL21” value (E. coli BL21; 10 h cultivation at 37° C.) was 12.5 µg/mL, the “MIC (μg/mL) M. catarrhalis” value (Moraxella catarrhalis; 10 h cultivation at 37° C.) was 12.5 µg/mL and the “MIC (μg/mL) K. pneumonia” value (Klebsiella pneumonia; 10 h cultivation at 37° C.) was 25 µg/mL. The “MIC (μg/mL) P. mirabilis” value (Proteus mirabilis; 10 h cultivation at 37° C.) was 50 µg/mL, the “MIC (μg/mL) S. marcescens” value (Serratia marcescens; 10 h cultivation at 37° C.) was 12.5 µg/mL and the “MIC (μg/mL) E. cloacae” value (Enterobacter cloacae; 10 h cultivation at 37° C.) was 50 µg/mL. The “MIC (μg/mL) C. diversus” value (Citrobacter diversus; 10 h cultivation at 37° C.) was 50 µg/mL, the MIC (E. coli DH5α) was 25 mg/L and the “MIC (μg/mL) P. vulgaris” value (Proteus vulgaris; 10 h cultivation at 37° C.) was 25 µg/mL. The “MIC (μg/mL) A. hydrophila” value (Aeromonas hydrophila; 10 h cultivation at 37° C.) was 12.5 µg/mL and the “MIC (μg/mL) P. aeruginosa” value (Pseudomonas aeruginosa; 10 h cultivation at 37° C.) was 25 µg/mL.

With “PRT1442 (DKDECAKDNGGCQHECVNTFGSYLCRCRNGYWLHENGHDCK; listed as Homo sapiens)” the “MIC against E. coli BL21” value (E. coli BL21; 10 h cultivation at 37° C.) was 12.5 mg/L, the “MIC against M. catarrhalis” value (Moraxella catarrhalis; 10 h cultivation at 37° C.) was 50 mg/L and the “MIC against K. pneumonia” value (Klebsiella pneumonia; 10 h cultivation at 37° C.) was 50 mg/L. For the same substance, the “MIC against P. mirabilis” value (Proteus mirabilis; 10 h cultivation at 37° C.) was 25 mg/L, the “MIC against S. marcescens” value (Serratia marcescens; 10 h cultivation at 37° C.) was 25 mg/L and the “MIC against E. cloacae” value (Enterobacter cloacae; 10 h cultivation at 37° C.) was 12.5 mg/L. The “MIC against C. diversus” value (Citrobacter diversus; 10 h cultivation at 37° C.) was 25 mg/L, the MIC (E. coli DH5α) was 12.5 mg/L and the “MIC against P. vulgaris” value (Proteus vulgaris; 10 h cultivation at 37° C.) was 12.5 mg/L. The “MIC against A. hydrophila” value (Aeromonas hydrophila; 10 h cultivation at 37° C.) was 25 mg/L and the “MIC against P. aeruginosa” value (Pseudomonas aeruginosa; 10 h cultivation at 37° C.) was 12.5 mg/L.
